Results: patent publication US20230257653A1, “FRACTAL FORMULATIONS” (NANOGYRE Sprl., priority 2020, published 2023)
≈ marks a conversion by molar mass, not a printed value. Like-named read-outs stand apart in the source and are kept apart here.

Assays:
[1] = Visual stability of the mother solution diluted in distilled water (pH 7) or acetic acid (pH 2.2); format: physicochemical; conditions: absence of light, 24 h
Protocol: (§1) 400 μl of the solution produced are taken and poured into a tube of 5 ml of distilled water (pH 7).
400 μl of the solution produced are taken and poured into a tube of 5 ml of acetic acid (pH 2.2).
as §1
200 μl of the solution produced are taken and poured into a tube of 5 ml of distilled water (pH 7).
200 μl of the solution produced are taken and poured into a tube of 5 ml of acetic acid (pH 2.2).
250 μl of the solution produced are taken and poured into a tube of 5 ml of distilled water (pH 7).
250 μl of the solution produced are taken and poured into a tube of 5 ml of acetic acid (pH 2.2).

[2] = Storage stability of the mother solution (deposition); conditions: no ethanol
[3] = Solubilization of hydrophobic cargo in betaine/Polysorbate 80/water liquid crystal, centrifugation 4000 rpm
Protocol: Mixing 2 ml of distilled water and 40 μL of Polysorbate 80, then adding 400 mg of pure curcumin, manually mixing and then adding 2 g of betaine all again mixed by vigorous manual stirring. The mixture of the 4 ingredients is then subjected for 20 minutes to a centrifugation of 4000 rpm.
(§2) The mixture of the 4 ingredients is then subjected for 30 minutes to a centrifugation of 4000 rpm.
The mixture of the 4 ingredients is then subjected for 40 minutes to a centrifugation of 4000 rpm.
as §2
Mixing 2 ml of distilled water and 35 μL of Polysorbate 80, then adding 50 mg of Clofazimine, mixing manually and then subjecting to a centrifugation of 4000 rpm and then adding 2 g of betaine all again mixed by vigorous manual stirring. The mixture of the 4 ingredients is then subjected for 30 minutes to a centrifugation of 4000 rpm.

[4] = Redissolution of dried, ground liquid crystal powders and visual pH variation test; format: physicochemical; conditions: for changes of resolubilized dry powder solution over time: absence of light, 24 h
Protocol: The remaining solution of the preceding example is poured into a glass Petri dish (diameter 35 mm) and subjected to drying at 60° C. in a hot air dehydrator (Stockli).
The dry product is then ground until it reaches±50 Mesh and stored in the absence of light and moisture for 10 days.
Next, 100 mg of dry powder are taken and poured into a tube of 5 ml of distilled water (pH 7).
Next, 100 mg of dry powder are taken and poured into a tube of 5 ml of acetic acid (pH 2.2).
Then this acidic solution is brought to an alkaline pH of 8 by adding sodium bicarbonate, in order to mimic the conditions of the pH differences encountered in the stomach and then the intestine.

[5] = octanol/water partition coefficient; cited from earlier work
[6] = substance alone; cited from earlier work
[7] = DLS (Dynamic Light Scattering) particle size of resolubilized dry powder, Zetasizer; format: physicochemical; conditions: 100 mg dry powder in 100 ml pure water, kept in the dark 14 days
Protocol: 100 mg of dry powder of Curcumin of the preceding example are dissolved in 100 ml of pure water before being kept in the dark for 14 days. This solution is then evaluated with DLS (Dynamic Light Scattering) in a Zetasizer apparatus (University of Namur).

[8] = mother solution poured into 5 ml acetic acid (pH 2.2)
[9] = mother solution poured into 5 ml distilled water (pH 7)

For C=C(C)[C@@H]1CCC(C)=C[C@H]1c1c(O)cc(CCCCC)cc1O [Cannabidiol], the “changes of diluted solution over time” value [1, 8] was “no changes over time”, the “changes of diluted solution over time” value [1, 9] was “no changes over time” and the “stability of mother solution on storage” value [2] was “remained stable without any deposition, or modification for a year”. The “estimated concentration of mother solution after centrifugation” value (shortened to “estimated concentration”) ([3]; 2 ml water, Polysorbate 80, 2 g betaine, no ethanol) was 47 mg/mL.
With CC(C)/N=c1\cc2n(-c3ccc(Cl)cc3)c3ccccc3nc-2cc1Nc1ccc(Cl)cc1 [Clofazimine] the “dissolution of dry powder” value ([4]; 100 mg dry powder (stored 10 days) in 5 ml acetic acid (pH 2.2)) was “immediately solubilizes”, the “dissolution of dry powder” value ([4]; 100 mg dry powder (stored 10 days) in 5 ml distilled water (pH 7)) was “immediately solubilizes” and the “changes of resolubilized dry powder solution over time” value ([4]; 5 ml acetic acid (pH 2.2)) was “no changes over time”. The “changes of resolubilized dry powder solution over time” value ([4]; 5 ml distilled water (pH 7)) was “no changes over time”, the “stability of the acidic solution brought to alkaline pH” value ([4]; pH 2.2 solution brought to pH 8 with sodium bicarbonate) was “remains stable without any precipitation or modification” and the “Log P” value [5] was 7.39. For the same molecule, the “changes of diluted solution over time” value [1, 8] was “no changes over time”, the “changes of diluted solution over time” value [1, 9] was “no changes over time” and the “Solubility in Water” value [6] was 1.51 µg/mL (≈ 3.19 µM). For the same molecule, the “estimated concentration” value [3] was 14.7 mg/mL, the “factor by which solubility in water was multiplied” value [3] was 9730 and the “solubilization result (visual)” value [3] was “completely solubilized”.
In the case of COc1cc(/C=C/C(=O)CC(=O)/C=C/c2ccc(O)c(OC)c2)ccc1O [Curcumin], the “changes of diluted solution over time” value [1, 8] is reported as “no changes over time”, the “changes of diluted solution over time” value [1, 9] is reported as “no changes over time” and the “average particle size of the solution” value [7] is reported as at most 10 nanometers. The polydispersity [7] was “very low”, the “Solubility in Water” value [6] was 5.75 µg/mL (≈ 15.6 µM) and the “estimated concentration” value [3] was 80 mg/mL. For the same molecule, the “factor by which solubility in water was multiplied” value [3] was 10,000, the “non-solubilized fraction remaining in the bottom of the tube (pellet/base)” value [3] was 30-40% and the “concentration of mother solution weighted for the pellet/base” value ([3]; 2 ml water, 40 μL Polysorbate 80, 2 g betaine, no ethanol) was 60000 µg/mL.
